Assay results as given in ChEMBL document CHEMBL3507680, “University of Dundee, Gates Library screen for HepG2 cell viability”.

Experiment: Human HepG2 cell viability assay in 384 well format
Format: toxicity, cell-based
Design: dose 125 nL, time 70.5 hour; concentration not given beside the values
Settings: HepG2 cells, read-out: Inhibition

SMILES	cytotoxicity at 70.5 h
COc1ccc2nnc(C(=O)NCC3CCCC3)nc2c1	-4.54%
CN1CCN2C(=O)N(c3ccccc3)C[C@H]2C1	-0.222%
CCC[C@H]1CN(C(=O)c2cc(-c3cccs3)n(C)n2)C[C@@H]1N	-0.00623%
O=C(Nc1cccc(-c2cscn2)c1)N1CCC2(CC1)CC(O)CO2 (configuration not stated)	-11.6%
CC(C)CN1CCC2(C=C(C(=O)N(C)C)c3ccccc32)CC1	-2.19%
CC(=O)N(Cc1noc(C2CC2)n1)C1CCN(Cc2cc(C)on2)C1 (configuration not stated)	-3.51%
NC(=O)CN1CCC(C(=O)NCCc2nc(-c3ccccc3)cs2)CC1	-3.75%
Cc1nc(C)n(CC2CCCN2CC(=O)Nc2cc(C)on2)n1 (configuration not stated)	-8.96%
CC(C(=O)N1CCOCC1)n1cncn1 (configuration not stated)	-4.26%
O=C(O)c1ccnc(-c2ccnc(COc3ccc(Cl)cc3)n2)c1	-9.69%
Cc1nc(CNCc2cccnc2Oc2ccc(C)c(F)c2F)c[nH]1	0.762%
Cc1ccc(C(=O)NCc2ccccc2S(=O)(=O)N(C)CCO)cc1F	-1.52%
C=C(C)COc1ccccc1C(=O)N1CCC2(CC1)CN(C)CCN2C	-11.5%
CC(C)NC(=O)N1CCc2onc(C(=O)NCCN(C)C)c2C1	-2.85%
CCCc1noc(CCC(=O)N2CCCC2c2ccncc2)n1 (configuration not stated)	-5.95%
O=c1c(CN2CCCCC2)coc2ccc(Cl)cc12	-7.22%
CNC(=O)[C@@]12CCO[C@@H]1CCN(Cc1scnc1C)C2	4.42%
COC(=O)CNCC1(O)CCCN(Cc2cccc(F)c2F)C1=O (configuration not stated)	-0.438%
COCCN1CCc2ccc(=O)n(Cc3csc(C)n3)c2CC1	-6.35%
Cc1cnn(CCC(=O)N2CCN(c3nc(C)cs3)CC2)c1	30.3%
OCC(CO)N1CCCC(Cc2cnc(Nc3ccccn3)cn2)C1 (configuration not stated)	-3.34%

SMILES	cytotoxicity at 70.5 h
O=c1[nH]c(NCCCO)nc2c1C1(CCCC1)Cc1ccccc1-2	-23.5%
CCc1noc(CN2CCN(CCO)CC2)n1	-1.62%
COc1ccccc1N1CCC(CNC(=O)N(C)Cc2ccco2)C1 (configuration not stated)	-3.56%
COCC(NC(=O)c1cc(C)n(C)n1)c1cccc(C(F)(F)F)c1 (configuration not stated)	4.67%
Cn1cc(CN2CCn3cc(Cn4cccn4)nc3C2)cn1	44.1%
Cc1cnc2c(S(=O)(=O)NC(=O)C(C)OCC3CC3)cccc2c1 (configuration not stated)	-0.0884%
N#Cc1cccnc1NCc1ccc(S(=O)(=O)NC2CC2)cc1	-17.8%
Cc1ccc(NC2CCCN(CCc3ccccc3)C2)nn1 (configuration not stated)	-3.93%
CC(=O)N1CCC(c2nccnc2-c2ccc(F)c(F)c2)CC1	-0.906%
CCC(C)(CC(=O)OC)NCc1cc(C)on1 (configuration not stated)	-11%
CCn1ccnc1S(=O)(=O)Cc1c(C)cc(C)c(C(C)=O)c1C	-6.82%
Cc1ncsc1CCN(C)C(=O)c1ncccc1O	-7.99%
Cc1cnc(CN(C)C2CCN(Cc3sc(C)nc3C)C2)o1 (configuration not stated)	29.7%
CS(=O)(=O)N1CCCC1c1cccc(Nc2nccs2)n1 (configuration not stated)	28.9%
CCN(Cc1ccc2c(c1)OCO2)S(=O)(=O)N(C)C(C)C	-1.76%
Cc1nn(C)c2ncnc(NCC(O)CN3CCCCC3)c12 (configuration not stated)	21.5%
O=C(NC1CCC1)[C@@H]1CC[C@@H]2[C@@H](CCN2CCc2ccccc2)O1	-13.9%
Cc1ccc(OCc2nc(CNCC3CN(C)CCO3)cs2)cc1 (configuration not stated)	29.7%
COc1cc(NC(=O)N(C)CC2CC2)ncn1	-7.89%
COc1ccc2cc(CN(C)CCN3CCCCC3=O)c(=O)[nH]c2c1	-12.2%
Cc1n[nH]c(C2CN(C(=O)c3ccco3)CCO2)n1 (configuration not stated)	-4.63%

SMILES	cytotoxicity at 70.5 h
CC(C)n1nccc1CN1Cc2nccn2CC1c1ccccc1 (configuration not stated)	-7.71%
O=C(CCOCC(F)(F)F)N1CCCC1c1noc(C2CC2)n1 (configuration not stated)	-8.98%
Cn1cccc1CN1CCC2(CC1)CN(c1ncccn1)CCO2	1.85%
COc1ccc(COCC(O)CSc2ccc(NC(C)=O)cc2)cc1 (configuration not stated)	-10.5%
O=C(NCCCc1ccco1)c1ccc(N2CCOCC2)cc1	4.57%
CNC(=O)c1cc2c(nc1NCC1CC1)CCN(S(C)(=O)=O)CC2	-23.3%
CN(CCNC(=O)c1cnc(-c2ccccc2)nc1)S(C)(=O)=O	5.47%
CCNC(=O)[C@@H]1CCCN1C1(C(=O)NC)CCC1	-5.11%
COCc1noc(CN2C[C@H](NS(C)(=O)=O)[C@@H](C3CC3)C2)n1	-11%
CC1CCCN(c2ccccc2OCC(=O)NC2CC2)C1 (configuration not stated)	2.91%
CNC(=O)c1ccc(C2CN(C(=O)COC)CCO2)nc1 (configuration not stated)	-16.7%
Cc1cccc(NC(=O)N2CCCn3cnc(CN(C)C(C)C)c3C2)c1	17.2%
Cc1ccc(C(=O)N2CCCN(Cc3cccs3)CC2)n1C	-7.93%
CC(CNC(=O)Nc1cn[nH]c1)N1CCOCC1 (configuration not stated)	-12.1%
CN(C)S(=O)(=O)N1C[C@H](Oc2cccnc2)[C@H]2OCCC[C@H]21	31.1%
CN(CC1CCCCO1)c1ncnc2cc(F)ccc12 (configuration not stated)	-9.25%
c1ccc(-n2ccc(CN3CCCC(Cn4cncn4)C3)n2)cc1 (configuration not stated)	0.226%
CN1CCN(C(=O)[C@H]2C[C@H]3[C@H](CCN3Cc3nccs3)O2)CC1	-10.8%
COc1ccc(Oc2cccc(C#N)n2)cc1CN1CCCC1	-1.4%
CC(=O)Nc1cc(C(=O)N2CCOCC2c2ccc(C)o2)ccc1F (configuration not stated)	-6.36%
CC(=O)N(C)c1nc(CN2CCOC(Cn3cccn3)C2)cs1 (configuration not stated)	-11.7%

SMILES	cytotoxicity at 70.5 h
CCn1cc(CN2CCCN(C(=O)c3ccccc3C)CC2)cn1	-2.18%
c1cncc(N2CCCn3nnc(CN4CCOCC4)c3C2)c1	-5%
CCn1cc(CN2C[C@@H]3CCCN3C[C@@H]2CCSC)c(C)n1	-22.6%
NC(=O)CN1CC(c2nc(C3CC3)no2)C1	-7.4%
COc1ccc(C(=O)Nc2c(C)nc3cccc(C)n3c2=O)cc1	-17.1%
CC1CCCN(Cc2c(C3CC3)[nH]c3ncccc23)C1 (configuration not stated)	-4.53%
O=C(Cc1ccsc1)N1CCCC(c2n[nH]c3nccnc23)C1 (configuration not stated)	18.6%
COc1ccc(OCc2cc(C(=O)N3CCCCO3)n[nH]2)c(Cl)c1	-19.5%
Cn1ccnc1CN1C[C@@H]2OCCN(c3ncccn3)[C@@H]2C1	-16.1%
O=C(c1ccc(S(=O)(=O)NCc2ccon2)cc1)N1CCNCC1	-6.36%
O=S(=O)(NCC1OCCc2cn(Cc3ccccn3)nc21)C1CC1 (configuration not stated)	-0.93%
CS(=O)(=O)c1cnc(N2CCCC2)nc1C1CCN(C(=O)C2CC2)CC1	0.997%
COCCN(CC1CC1)c1nc(CCN)nc2ccccc12	-4.8%
O=C(NCc1nnc2n1CCCCC2)N1CCC2(CCCCC2)C1	-6.29%
Cn1nccc1C(=O)N1CCC(c2ncc(Cl)cc2S(C)(=O)=O)CC1	18.3%
COC(=O)CNC(=O)CC1COc2ccc(C(=O)N(C)C)cc2N1C (configuration not stated)	-2.55%
O=C(N1CCOCC1)N1CCN(c2ccncc2Cl)CC1	1.32%
c1ccc2c(N3CCSCC3)cnnc2c1	-3.97%
Cn1cncc1-c1nnc([C@H]2CCN(Cc3ccc(CO)o3)C2)o1	5.94%
